Assay results from PubChem BioAssay (NCI).
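In this assay, cells in 96-well plates receive the compound at five concentrations for 48 hours. Endpoints are linearly interpolated between the surrounding concentrations. The concentration for full growth arrest is given as TGI.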

How the values were obtained:
Assay in all cases: inhibition of tumour cell growth, NCI panel, 48 h
CCRF-CEM leukemia = system: CCRF-CEM leukemia
EKVX NSCLC = system: EKVX NSCLC
HCT-116 colon = system: HCT-116 colon
HL-60(TB) leukemia = system: HL-60(TB) leukemia
HOP-92 NSCLC = system: HOP-92 NSCLC
IGROV1 ovarian = system: IGROV1 ovarian
K-562 leukemia = system: K-562 leukemia
M14 melanoma = system: M14 melanoma
MCF7 breast = system: MCF7 breast
MDA-MB-435 = system: MDA-MB-435
NCI-H226 lung = system: NCI-H226 lung
OVCAR-3 ovarian = system: OVCAR-3 ovarian
OVCAR-4 ovarian = system: OVCAR-4 ovarian
PC-3 prostate = system: PC-3 prostate
RPMI-8226 leukemia = system: RPMI-8226 leukemia
UO-31 renal = system: UO-31 renal

Row | SMILES | TGI (CCRF-CEM leukemia) | TGI (EKVX NSCLC) | TGI (HCT-116 colon) | TGI (HL-60(TB) leukemia) | TGI (HOP-92 NSCLC) | TGI (IGROV1 ovarian) | TGI (K-562 leukemia) | TGI (M14 melanoma) | TGI (MCF7 breast) | TGI (MDA-MB-435) | TGI (NCI-H226 lung) | TGI (OVCAR-3 ovarian) | TGI (OVCAR-4 ovarian) | TGI (PC-3 prostate) | TGI (RPMI-8226 leukemia) | TGI (UO-31 renal)
1 | CC(NC(=O)OCc1ccccc1)NC(=O)OC(C)(C)C (centres undefined) | > 100 µM | > 100 µM | > 100 µM | > 100 µM | > 100 µM | > 100 µM | > 100 µM | > 100 µM | > 100 µM | > 100 µM | > 100 µM | > 100 µM | > 100 µM | > 100 µM | > 100 µM | > 100 µM
2 | CC1=NN(c2cccc(S(=O)(=O)O)c2)C2(C1)C(Cl)C(=O)N2c1nc2ccccc2s1 (centres undefined) | 3.67 µM | 26.7 µM | 20.4 µM | 7.16 µM | 9.95 µM | 3.5 µM | > 41.4 µM | 24.6 µM | 25 µM | 21.2 µM | 22.2 µM | 9.26 µM | 14.9 µM | 22.9 µM | 4.47 µM | 8.27 µM
3 | CC(C)C[C@H]1[C@@H](OCc2ccccc2)COS(=O)(=O)N1[C@H](C)c1ccccc1 | > 100 µM | > 100 µM | > 100 µM | > 69.7 µM | > 100 µM | > 100 µM | > 100 µM | > 100 µM | > 100 µM | > 100 µM | > 100 µM | > 100 µM | > 100 µM | > 100 µM | > 74.7 µM | > 100 µM
4 | COc1ccc(CNc2ccn(C3OC(CO)C(O)C3O)c(=O)n2)cc1 (centres undefined) | > 100 µM | > 100 µM | > 100 µM | 83.3 µM | > 100 µM | > 100 µM | > 100 µM | > 100 µM | > 100 µM | > 100 µM | > 100 µM | > 100 µM | > 100 µM | > 100 µM | > 100 µM | > 100 µM
5 | Cn1c(-c2cccs2)cc(-c2cccs2)c1-c1cccs1 | > 100 µM | > 100 µM | > 100 µM | > 100 µM | > 100 µM | > 100 µM | > 100 µM | > 100 µM | > 100 µM | > 100 µM | > 100 µM | > 100 µM | > 100 µM | > 100 µM | > 100 µM | > 100 µM
6 | COC(=O)/C(C)=N/NC(=S)SC | 11 µM | > 100 µM | 98.5 µM | 28.5 µM | > 100 µM | > 100 µM | > 100 µM | 57 µM | > 100 µM | > 100 µM | > 100 µM | > 100 µM | > 100 µM | > 100 µM | > 100 µM | > 100 µM
7 | CC1=NN(c2ccccc2)C2(C1)C(Cl)C(=O)N2c1nc2ccccc2s1 (centres undefined) | 48.8 µM | > 100 µM | 51.5 µM | 55.5 µM | > 100 µM | > 100 µM | > 100 µM | > 100 µM | > 100 µM | > 100 µM | 85.7 µM | 47.9 µM | > 100 µM | > 100 µM | 67.2 µM | > 100 µM
8 | Cc1ccc2c(c1)C(=O)C1(C2)Cc2c(C)cccc2C1=O (centres undefined) | > 100 µM | > 100 µM | > 100 µM | > 100 µM | > 100 µM | > 100 µM | > 100 µM | > 100 µM | > 100 µM | > 100 µM | > 100 µM | > 100 µM | > 100 µM | > 100 µM | > 100 µM | > 100 µM
9 | CCOC(=O)CC[C@H](N)C(=O)N[C@@H](Cc1ccc(N(CCCl)CCCl)cc1)C(=O)OCC | 4.5 µM | 6.11 µM | 4.09 µM | 1.33 µM | 1.62 µM | 4.75 µM | > 33 µM | 1.59 µM | 15.5 µM | 2.83 µM | 28.8 µM | 1.82 µM | 1.41 µM | 7.46 µM | 28.4 µM | 3.44 µM
10 | CC[C@@]1(O)C(=O)OCc2c1cc1n(c2=O)Cc2c-1nc1ccccc1c2/C=N\NC(=O)C[n+]1ccccc1 | > 100 µM | > 100 µM | > 38.1 µM | > 34.4 µM | > 31.6 µM | > 100 µM | > 100 µM | 6.37 µM | 16.2 µM | > 100 µM | > 29.7 µM | > 79.4 µM | > 100 µM | > 100 µM | > 100 µM | 2.56 µM
11 | CC(=O)Nc1ccc(-c2nc3ccccc3s2)cc1Br | > 100 µM | > 97.1 µM | > 100 µM | > 100 µM | > 100 µM | 17.4 µM | > 100 µM | > 100 µM | > 100 µM | > 100 µM | > 94.7 µM | > 100 µM | > 100 µM | > 100 µM | > 100 µM | > 100 µM
12 | NCc1ccc(-c2ccc(CN)s2)s1 | > 100 µM | > 100 µM | > 100 µM | > 100 µM | > 100 µM | 76.3 µM | > 100 µM | > 100 µM | > 100 µM | > 100 µM | > 100 µM | > 100 µM | > 100 µM | > 100 µM | > 100 µM | > 100 µM
13 | C=CCN1C(=O)/C(=C/c2ccc(Cl)cc2)N=C1SC/C=C/C | > 100 µM | > 100 µM | > 100 µM | 57.5 µM | 84.2 µM | > 100 µM | > 100 µM | > 100 µM | 84.3 µM | > 100 µM | > 100 µM | > 100 µM | > 100 µM | > 100 µM | 47.3 µM | > 100 µM
14 | O=C1C2=Cc3ccccc3CCN2c2ccccc21 | 26.1 µM | > 94.5 µM | > 70.4 µM | 72.4 µM | > 92.3 µM | > 100 µM | 20.5 µM | 26.8 µM | > 61 µM | > 56.3 µM | 22 µM | > 100 µM | > 100 µM | > 62.7 µM | 23.3 µM | > 100 µM
